From US9402839B2, “Selective targeting agents for mitochondria” (University of Pittsburgh—Of the Commonwealth System of …, priority 2006, dated 2016)
Non-standard residues stand in square brackets, D forms with d. Residues, ends and D or L forms follow the SMILES beside them. *: point of attachment. Orn = NCCC[C@H](N)C(=O)O; Cbz = O=C(OCc1ccccc1)*; Boc = CC(C)(C)OC(=O)*; X1 = CC1CCN=C(N*)S1

Tests used:
[1] = test system: irradiated uroepithelial cells; test: NO and peroxynitrite production in irradiated uroepithelial cells (microsensor measurements); assay type: cell-based
Description: Further physiological studies were conducted to determine the effects of peptide-targeted AMT and 4-amino-TEMPO on NO and peroxynitrite production in irradiated uroepithelial cells. The cells were cultured in an 8-well slide chamber for 3 days and then microsensor measurements were taken 24 hours after irradiation.
In cells treated with high-dose conjugated 4-amin-TEMPO (100 μM), peroxynitrite production was decreased by approximately 4-fold.

[2] = test system: 32D c13 hemopoietic cells; test: Mass spectrometry analysis of mitochondria isolated from incubated 32D c13 cells; assay type: cell-based; conditions: 100 μM, two hours at 37° C.
Description: An unconjugated and conjugated NOS antagonist, (AMT, 100 μM) and an unconjugated and conjugated nitroxide derivative (4-amino-TEMPO, 100 μM) were incubated for two hours at 37° C. with 32D c13 hemopoietic cells.
Following incubation, the cells were lysed and the mitochondria isolated for a mass spectrometry analysis where compounds isolated from mitochondria were identified as Na+ adducts. […] Thus, the targeting peptides successfully direct a NOS antagonist and a nitroxide to the mitochondria.

[3] = test system: MECs; test: Determination of intracellular superoxide radicals (DHE oxidation, flow cytometry) in ActD-treated MECs; assay type: cell-based, mouse; conditions: 10 μM pretreatment, ActD 100 ng/mL; nearly two-fold ActD-induced increase
Description: Determination of intracellular superoxide radicals Oxidation-dependent fluorogenic dye, dihydroethidium (“DHE”, Molecular Probes) was used to evaluate intracellular production of superoxide radicals. DHE is cell permeable and, in the presence of superoxide, is oxidized to fluorescent ethidium which intercalates into DNA. The fluorescence of ethidium was measured using a FACscan (BECTON-DICKINSON, Rutherford, N.J.) flow cytometer, equipped with a 488-nm argon ion laser and supplied with the Cell Quest software. Mean fluorescence intensity from 10,000 cells were acquired using a 585-nm bandpass filter (FL-2 channel).

[4] = test system: mouse embryonic cells (MEC); assay type: cell-based; conditions: 10 μM; with and without K3Fe(CN)6
Description: Electron paramagnetic resonance (“EPR”) spectroscopy was used to monitor the cellular delivery of compounds 5a and 5b shown in FIG. 2 in mouse embryonic cells (“MEC”).
The following conditions were used during the EPR-based analysis of the integration and reduction of nitroxide Gramicidin S-peptidyl conjugates in MECs. The MECs at a concentration of 10 million MECs per mL were incubated with 10 μM of 4-AT and compound 5a, respectively. Recovered nitroxide radicals in whole cells, mitochondria, and cytosol fractions were resuspended in phosphate buffer saline (“PBS”) in the presence and absence, respectively, of 2 μM K3Fe(CN)6.

[5] = test system: MECs; test: ActD-induced apoptosis in MECs (PS externalization, caspase-3 activation, DNA fragmentation); assay type: cell-based, mouse; conditions: 10 μM / low concentrations, ActD 100 ng/mL
Excerpt: Cells that annexin V-positive and PI-negative were considered apoptotic.

[6] = test system: rat ileal mucosal permeability; test: Intestinal mucosal permeability assay (FD4 clearance, everted gut sacs) after pressure-controlled hemorrhagic shock; assay type: in vivo; conditions: for protection against hemorrhagic shock-induced ileal mucosal hyperpermeability: intraluminal, 0.1-100 μM, 2 h shock
Description: Intestinal mucosal permeability assay. Animals were allowed access to water but not food for 24 h prior to the experiment in order to decrease the volume of intestinal contents. The rats were instrumented as described above.
A midline laparotomy was performed and the small intestine was exteriorized from the duodenojejunal junction to the ileocecal valve. A small incision was made on the antimesenteric aspect of the proximal small intestine and saline solution (1.5 ml) was injected. The bowel was ligated proximally and distally to the incision with 4-0 silk (LOOK, Reading, Pa.).
The small intestine was compressed gently in aboral direction along its length to displace intestinal contents into the colon. Starting 5 cm from the ileocecal valve, the ileum was partitioned into six contiguous water-tight segments. Each segment was 3 cm long and was bounded proximally and distally by constricting circumferential 4-0 silk sutures. Care was taken to ensure that the vascular supply to intestine was not compromised, and each segment was well-perfused.
Two randomly selected segments in each rat were injected with 0.3 ml of vehicle and served as “no treatment” controls. In order to fill the segments, a small incision was made and the solution was injected using a Teflon catheter (ABBOCATH 16Ga, ABBOTT LABORATORIES).
The remaining four other segments were injected with solutions containing either 4-hydroxy-2,2,6,6-tetramethylpiperidine-N-oxyl (TEMPOL) or one of the Gramicidin S-based compounds. Four different final concentrations of TEMPOL in normal saline were evaluated: 0.1, 1, 5 and 20 mM. The hemigramicidin-based compounds were dissolved in a mixture of dimethylsulfoxide (DMSO) and normal saline (1:99 v/v) and injected at final concentrations of 0.1, 1, 10 or 100 μM.
After the segments were loaded with saline or the test compounds, the bowel was replaced inside the peritoneal cavity and the abdominal incision was temporarily closed using Backhaus forceps.
After a 5 min stabilization period, hemorrhagic shock was induced by withdrawing blood via the jugular catheter. MAP was maintained at 30±3 mm Hg for 2 hours. The shed blood was re-infused as needed to maintain MAP within the desired range.
After 2 h of shock, the animals were euthanized with an intracardiac KCl bolus injection. The ileum was rapidly excised from the ileocecal valve to the most proximal gut segment. The tips of each segment were discarded. In order to assay caspases 3 and 7 activity and phospholipids peroxidation, mucosa samples were collected from gut segments immediately after hemorrhage and stored at −80° C. For permeability measurements, each segment was converted into an everted gut sac, as previously described by Wattanasirichaigoon et al., see Wattanasirichaigoon, S. et al., Effect of mesenteric ischemia and reperfusion or hemorrhagic shock on intestinal mucosal permeability and ATP content in rats, SHOCK, 12:127-133 (1999).
Briefly, as per the Wattanasirichaigoon protocol referenced above, the sacs were prepared in ice-cold modified Krebs-Henseleit bicarbonate buffer (“KHBB”), pH 7.4. One end of the gut segment was ligated with a 4-0 silk suture; the segment was then everted onto a thin plastic rod. The resulting gut sac was mounted on a Teflon catheter (Abbocath 16GA, Abbot Laboratories) connected to a 3 ml plastic syringe containing 1.5 ml of KHBB. The sac was suspended in a beaker containing KHBB plus fluorescein-isothiocyanate labeled dextran (average molecular mass 4 kDa; FD4; 0.1 mg/ml). This solution was maintained at 37° C., and oxygenated by bubbling with a gas mixture (O2 95%/CO2 5%). After 30 min, the fluid within the gut sac was collected. The samples were cleared by centrifugation at 2000 g for 5 min.
Fluorescence of FD4 in the solution inside the beaker and within each gut sac was measured using a fluorescence spectrophotometer (LS-50, PERKIN-ELMER, Palo Alto, Calif.) at an excitation wavelength of 492 nm and an emission wavelength of 515 nm. […]

[7] = test system: mitochondrial membrane; test: Quantitative mass spectrometry of AMT peptide conjugates permeating the mitochondrial membrane; assay type: cell-based; conditions: for Fmole/l0M mitochondrial protein: relative quantification of conjugate concentration at the target site
Description: Quantitative mass spectrometry studies were used to compare the effectiveness of several AMT peptide conjugates in permeating the mitochondrial membrane, specifically XJB-5-234, XJB-5-133, XJB-5-241, and XJB-5-127. The Fmole/10 μM mitochondrial protein ratio provides a relative quantification of conjugate concentration at the target site.

## CC1(C)CC(N)CC(C)(C)N1[O] [4-AT, 4-amino-TEMPO, reference compound]
[1]; 100 μM, 24 hours after irradiation
  capsaicin-evoked peroxynitrite formation compared with untreated irradiated cells: comparable amount of peroxynitrite
[2]
  permeation of the mitochondrial membrane (mass spectrometry of isolated mitochondria): only permeate the mitochondrial membrane with the assistance of the attached GS-derived targeting sequence
[3]
  intracellular superoxide generation in MECs: no effect
[4]
  integration and one-electron reduction in MECs (EPR signal increase upon ferricyanide): did not effectively permeate cells or the mitochondria
[5]
  protection of MECs against ActD-induced apoptosis: afforded no protection

## CC1CCN=C(N)S1 (centres unmarked) [AMT, 2-amino-6-methyl-thiazine]
[1]
  radioprotectant effectiveness compared with 4-amino-TEMPO: more effective radioprotectant
[1]; 10 μM, 24 hours after irradiation
  NO induced peroxynitrite formation: comparable amount of peroxynitrite
[2]
  permeation of the mitochondrial membrane (mass spectrometry of isolated mitochondria): do not enter the mitochondria membrane in substantial quantities

## CC1(C)CC(O)CC(C)(C)N1[O] [TEMPOL, 4-hydroxy-2,2,6,6-tetramethylpiperidine-N-oxyl, reference compound]
[6]; intraluminal, 0.1, 1, 5 and 20 mM tested
  concentrations in the gut lumen that ameliorated hemorrhagic shock-induced ileal mucosal hyperpermeability: > 1 mM

## CC(C)C[C@H](NC(=O)OC(C)(C)C)C(=O)N[C@H](Cc1ccccc1)C(=O)N1CCC[C@H]1C(=O)N[C@H](C(=O)N[C@@H](CCCNC(=O)OCc1ccccc1)C(=O)NC1=NCCC(C)S1)C(C)C (stereo partly drawn) [XJB-5-127, Boc-Leu-^DPhe-Pro-Val-Orn(Cbz)-AMT] (Boc-L[dF]PV[Orn](Cbz)-X1)
[7]
  biological activity compared with XJB-5-241: less biologically active
[6]
  protection against hemorrhagic shock-induced ileal mucosal hyperpermeability: Ineffective

## CC(C)C[C@@H](/C=C/[C@H](Cc1ccccc1)C(=O)N1CCC[C@H]1C(=O)N[C@H](C(=O)N[C@@H](CCCNC(=O)OCc1ccccc1)C(=O)NC1=NCCC(C)S1)C(C)C)NC(=O)OC(C)(C)C (stereo partly drawn) [XJB-5-133, Boc-Leu-ψ[(E)-CH═CH]-^DPhe-Pro-Val-Orn(Cbz)-AMT]
[7]
  biological activity compared with XJB-5-241: less biologically active
  Fmole/l0M mitochondrial protein: 89.8 Fmole/l0M mitochondrial protein
[6]
  protection against hemorrhagic shock-induced ileal mucosal hyperpermeability: did not afford protection

## CC(C)C[C@@H](/C=C/[C@H](Cc1ccccc1)C(=O)NC1=NCCC(C)S1)NC(=O)OC(C)(C)C (stereo partly drawn) [XJB-5-234, Boc-Leu-ψ[(E)-CH═CH]-^DPhe-AMT]
[7]
  Fmole/l0M mitochondrial protein: 1.45 Fmole/l0M mitochondrial protein

## C/C(=C\[C@H](Cc1ccccc1)C(=O)N1CCC[C@H]1C(=O)N[C@H](C(=O)N[C@@H](CCCNC(=O)OCc1ccccc1)C(=O)NC1=NCCC(C)S1)C(C)C)[C@H](CC(C)C)NC(=O)OC(C)(C)C (stereo partly drawn) [XJB-5-241, Boc-Leu-ψ[(E)-C(CH3)═CH]-^DPhe-Pro-Val-Orn(Cbz)-AMT]
[7]; among XJB-5-234, XJB-5-133, XJB-5-241 and XJB-5-127
  ranking of conjugates in permeating the mitochondrial membrane: most efficacious conjugate
[7]
  Fmole/l0M mitochondrial protein: 103.3 Fmole/l0M mitochondrial protein
